Marks after values point to notes of the source that are not given here.
Assays:
Assay type in all cases: physicochemical
[1] = Forced degradation of API, drug product emulsion and placebo (Examples 30 and 32)
Procedure: In this example, a forced degradation study was performed on the API, drug product emulsion, and a placebo. Only w/w % impurities are presented.
In this example, an additional forced degradation study was performed. Harsh conditions for oxidation (H2O2 concentration increased from 1% to 3%, exposure increased from 30 min to 2 hr) and conditions for photolytic degradation (exposure decreased from 24 hr to 40 min) were used in an additional forced degradation study.

[2] = Assay/impurities of AE14B trial batch #1 (Examples 17 and 19); conditions: API as dispensed
[3] = AE14B trial batch #3 assay/impurities during process (Examples 22 and 23)

Structure (SMILES): CCCCCc1cc(O)c2c(c1)OC(C)(C)[C@@H]1CCC(C)=C[C@@H]21 [API]
- % w/w Impurities RRT 0.49 ([1]; Photolytic 24 hr, 1st study): 2.55 % w/w
- % w/w Impurities RRT 0.62 ([1]; Photolytic 24 hr, 1st study): 1.45 % w/w
- % w/w Impurities RRT 0.75 ([1]; Photolytic 24 hr, 1st study): 0.25 % w/w
- % w/w Impurities RRT 0.82 ([1]; Photolytic 24 hr, 1st study): 0.49 % w/w
- % w/w Impurities RRT 1.19 ([1]; Photolytic 24 hr, 1st study): 0.83 % w/w
- % w/w Impurities RRT 1.45 ([1]; Photolytic 24 hr, 1st study): 0.07 % w/w
- % w/w Impurities Total ([1]; Photolytic 24 hr, 1st study): 17.9 % w/w
- Assay % LC ([1]; Photolytic 24 hr, 1st study): 2.3 % LC
- Impurity Change CBD ([1]; Stress condition Acid): 2 (2: Increase in API)
- Impurity Change RRT 0.40 ([1]; Stress condition Acid): 2 (2: Increase in API)
- Impurity Change RRT 0.46 ([1]; Stress condition Acid): — (Blank cell: no effect)
- Impurity Change RRT 0.62 ([1]; Stress condition Acid): 2 (2: Increase in API)
- Impurity Change RRT 0.93 ([1]; Stress condition Acid): — (Blank cell: no effect)
- Impurity Change CBD ([1]; Stress condition Base): 2 (2: Increase in API)
- Impurity Change CBN ([1]; Stress condition Base): — (Blank cell: no effect)
- Impurity Change RRT 0.40 ([1]; Stress condition Base): 2 (2: Increase in API)
- Impurity Change RRT 0.46 ([1]; Stress condition Base): — (Blank cell: no effect)
- Impurity Change RRT 0.62 ([1]; Stress condition Base): 2 (2: Increase in API)
- Impurity Change RRT 0.93 ([1]; Stress condition Base): — (Blank cell: no effect)
- Impurity Change CBD ([1]; Stress condition Oxidation): 2 (2: Increase in API)
- Impurity Change CBN ([1]; Stress condition Oxidation): — (Blank cell: no effect)
- Impurity Change RRT 0.40 ([1]; Stress condition Oxidation): — (Blank cell: no effect)
- Impurity Change RRT 0.46 ([1]; Stress condition Oxidation): — (Blank cell: no effect)
- Impurity Change RRT 0.62 ([1]; Stress condition Oxidation): 2 (2: Increase in API)
- Impurity Change RRT 0.93 ([1]; Stress condition Oxidation): — (Blank cell: no effect)
- Impurity Change CBD ([1]; Stress condition Photolytic): 2 (2: Increase in API)
- Impurity Change CBN ([1]; Stress condition Photolytic): 2 (2: Increase in API)
- Impurity Change RRT 0.40 ([1]; Stress condition Photolytic): 2 (2: Increase in API)
- Impurity Change RRT 0.46 ([1]; Stress condition Photolytic): 2 (2: Increase in API)
- Impurity Change RRT 0.62 ([1]; Stress condition Photolytic): 2 (2: Increase in API)
- Impurity Change CBD ([1]; Stress condition Thermal): 2 (2: Increase in API)
- Impurity Change CBN ([1]; Stress condition Thermal): 2 (2: Increase in API)
- Impurity Change RRT 0.46 ([1]; Stress condition Thermal): 2 (2: Increase in API)
- % Area ([1]; Thermal 24 hr, 1st study): 77.5 % Area
- % w/w Impurities CBD ([1]; Thermal 24 hr, 1st study): 2.43 % w/w
- % w/w Impurities CBN ([1]; Thermal 24 hr, 1st study): 9.03 % w/w
- % w/w Impurities RRT 0.30 ([1]; Thermal 24 hr, 1st study): 0.15 % w/w
- % w/w Impurities RRT 0.44 ([1]; Thermal 24 hr, 1st study): 0.47 % w/w
- % w/w Impurities RRT 0.46 ([1]; Thermal 24 hr, 1st study): 0.56 % w/w
- % w/w Impurities RRT 0.52 ([1]; Thermal 24 hr, 1st study): 0.40 % w/w
- % w/w Impurities RRT 0.56 ([1]; Thermal 24 hr, 1st study): 0.22 % w/w
- % w/w Impurities RRT 0.70 ([1]; Thermal 24 hr, 1st study): 0.29 % w/w
- % w/w Impurities RRT 1.19 ([1]; Thermal 24 hr, 1st study): 0.54 % w/w
- % w/w Impurities RRT 1.27 ([1]; Thermal 24 hr, 1st study): 0.26 % w/w
- % w/w Impurities RRT 1.40 ([1]; Thermal 24 hr, 1st study): 0.50 % w/w
- % w/w Impurities RRT 1.45 ([1]; Thermal 24 hr, 1st study): 0.34 % w/w
- % w/w Impurities RRT 1.48 ([1]; Thermal 24 hr, 1st study): 0.14 % w/w
- % w/w Impurities Total ([1]; Thermal 24 hr, 1st study): 15.3 % w/w
- Assay % LC ([1]; Thermal 24 hr, 1st study): 52.8 % LC
- Assay decrease ([1]; second study, photolytic degradation, 40 min light exposure): ~30%
- Impurity CBN [2]: 0.18 % Area
- THC % Area [2]: 99.84 % Area
- Total impurities [2]: 0.2 % Area
- THC Assay ([2]; calculated using 48.4% based on the certificate of analysis): 96.63* % LC
- % Area (THC from Imp) ([3]; API Sample): 99.6 % Area
- % Area of Impurities: CBN ([3]; API Sample): 0.18 % Area
- % Area of Impurities: RRT 0.46 ([3]; API Sample): <0.1 % Area
- % Area of Impurities: RRT 0.93 ([3]; API Sample): 0.18 % Area
- % Area of Impurities: Total ([3]; API Sample): 0.4 % Area
- % w/w of Impurities: CBN ([3]; API Sample): 0.15 % w/w
- % w/w of Impurities: RRT 0.46 ([3]; API Sample): <0.1 % w/w
- % w/w of Impurities: RRT 0.93 ([3]; API Sample): 0.15 % w/w
- % w/w of Impurities: Total ([3]; API Sample): 0.3 % w/w
- API % w/w ([3]; API Sample): 38.29 % w/w
- Assay % LC ([3]; API Sample): 79.12 % LC
- Conc. ([3]; API Sample): 38.29 % w/w
- Impurity CBN ([3]; API Sample): 0.18 % Area
- Impurity RRT 0.93 ([3]; API Sample): 0.18 % Area
- Osmolarity (mOsm/L) ([3]; API Sample): 228 mOsm/L
- Total impurities ([3]; API Sample): 0.4 % Area
- pH ([3]; API Sample): 6.60
- Osmolarity ([3]; API Sample column): 228 mOsm/L
- pH ([3]; API Sample column): 6.60
- total impurities excluding late eluting excipient impurities (RRT 1.22 and later) ([3]; Batch #3): 0.4 % area
- API % w/w ([3]; Repeated API Sample): 44.2 % w/w
- Assay % LC ([3]; Repeated API Sample): 91.29 % LC
